Experimental data reported in the supplement of paper PMC10307832.

Key:
Assay in all cases: relative viability (nuclei count vs DMSO), 5 days (fraction); higher = more cells survive
[1] = compound: O=c1[nH]cc(F)c(=O)[nH]1 [5-Fluorouracil] + COc1cc2c(Oc3ccc(NC(=O)C4(C(=O)Nc5ccc(F)cc5)CC4)cc3F)ccnc2cc1OCCCN1CCOCC1 [Foretinib] (partner 0.25 µM)
Outline: (§1)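 Lung cancer cell lines were seeded in 1536-well plates and dosed by pin tool the next day, with either a single drug or a fixed anchor-drug dose combined with five library-drug doses (not always all listed) spaced in √10 steps. Five days later, one step fixed the cells and stained their nuclei (final 0.05% Triton X-100, 1% formaldehyde, 1 ug/ml Hoechst), and nuclei were counted on 4× images. Relative viability is the nuclei count in treated wells divided by the count in vehicle wells, and each value is the median of duplicate plates.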

[2] = compound: CN[C@@H]1C[C@H]2O[C@@](C)([C@@H]1OC)n1c3ccccc3c3c4c(c5c6ccccc6n2c5c31)C(=O)NC4 [Staurosporine] + NC(=O)Nc1cc(-c2cccc(F)c2)sc1C(=O)N[C@H]1CCCNC1 [AZD7762] (partner 0.2 µM)
Outline: as §1

[3] = compound: CC1=C(CC(=O)O)c2cc(F)ccc2/C1=C\c1ccc([S+](C)[O-])cc1 [Sulindac] + Nc1nc2[nH]cc(CCc3ccc(C(=O)N[C@@H](CCC(=O)O)C(=O)O)cc3)c2c(=O)[nH]1 [Pemetrexed] (partner 0.2 µM)
Outline: as §1

[4] = compound: O=c1[nH]cc(F)c(=O)[nH]1 [5-Fluorouracil] + Cc1nc(Nc2ncc(C(=O)Nc3c(C)cccc3Cl)s2)cc(N2CCN(CCO)CC2)n1 [Dasatinib] (partner 0.075 µM)
Outline: as §1

| Cell Line | relative viability ([1]; first compound 0.02 µM) | relative viability ([1]; first compound 0.2 µM) | relative viability ([1]; first compound 0.6325 µM) | relative viability ([1]; first compound 2 µM) | relative viability ([2]; first compound 0.005 µM) | relative viability ([2]; first compound 0.01581 µM) | relative viability ([2]; first compound 0.05 µM) | relative viability ([2]; first compound 0.5 µM) | relative viability ([3]; first compound 0.08 µM) | relative viability ([3]; first compound 0.253 µM) | relative viability ([3]; first compound 2.53 µM) | relative viability ([3]; first compound 8 µM) | relative viability ([4]; first compound 0.02 µM) | relative viability ([4]; first compound 0.2 µM) | relative viability ([4]; first compound 0.6325 µM) | relative viability ([4]; first compound 2 µM) | relative viability ([2]; first compound 0.1581 µM) | relative viability ([3]; first compound 0.8 µM) |
| --- | --- | --- | --- | --- | --- | --- | --- | --- | --- | --- | --- | --- | --- | --- | --- | --- | --- | --- |
| NCI-H2347 | 0.689 | 0.822 | 0.453 | 0.513 | 0.459 | 0.264 | 0.374 | 0.224 | 0.429 | 0.394 | 0.461 | 0.414 | 0.334 | 0.328 | 0.295 | 0.224 | – | – |
| 201T | 1.18 | 0.509 | 0.211 | 0.176 | 0.599 | – | 0.498 | 0.342 | 0.329 | 0.325 | 0.323 | 0.366 | 0.592 | 0.555 | 0.348 | 0.284 | 0.579 | 0.339 |
| NCI-H1755 | 0.909 | 0.854 | 0.365 | 0.319 | 0.318 | 0.228 | 0.214 | 0.224 | 0.421 | 0.448 | 0.444 | 0.462 | 0.416 | 0.442 | 0.247 | 0.184 | 0.224 | 0.631 |
| NCI-H647 | 1.25 | 1.32 | 0.997 | 0.796 | 0.296 | 0.102 | 0.121 | 0.05 | 0.212 | 0.165 | 0.182 | 0.208 | 0.193 | 0.232 | 0.206 | 0.188 | 0.0587 | 0.169 |
| NCI-H1355 | 0.883 | 0.681 | 0.338 | 0.256 | 0.713 | 0.294 | 0.237 | 0.148 | 1.02 | 1.05 | 1.02 | 1.13 | 0.824 | 0.58 | 0.283 | 0.234 | 0.214 | 0.965 |
| NCI-H1975 | 0.999 | 0.898 | 0.469 | 0.259 | 0.536 | 0.402 | 0.357 | 0.182 | 0.316 | 0.297 | 0.304 | 0.313 | 0.363 | 0.387 | 0.307 | 0.231 | 0.261 | 0.245 |
| BEN | 0.63 | 0.609 | 0.548 | 0.587 | 0.946 | 0.776 | 0.761 | 0.294 | 0.816 | 0.757 | 0.706 | 0.998 | 0.318 | 0.318 | 0.284 | 0.277 | 0.316 | 0.698 |
| NCI-H322M | 0.976 | 0.84 | 0.749 | 0.446 | 0.552 | 0.456 | 0.527 | 0.425 | 0.646 | 0.642 | 0.552 | 0.666 | 0.279 | 0.243 | 0.242 | 0.234 | 0.393 | 0.597 |
| HOP-62 | 1.14 | 1.12 | 1.22 | 0.95 | 0.358 | 0.128 | – | 0.0794 | 0.412 | 0.27 | 0.258 | 0.389 | 0.681 | 0.69 | 0.59 | 0.558 | 0.126 | 0.31 |
| HCC-366 | 0.955 | 0.732 | 0.43 | 0.217 | 0.255 | – | 0.165 | 0.0248 | 0.205 | 0.183 | 0.14 | 0.172 | 0.559 | 0.61 | 0.249 | 0.0872 | 0.0217 | – |
| NCI-H2405 | 1 | 1.13 | 1.01 | 1.02 | 0.239 | 0.141 | 0.112 | 0.0865 | 1.14 | 1.17 | 0.926 | 1.15 | 0.217 | 0.231 | 0.197 | 0.224 | – | 0.971 |
| SW 900 | 0.629 | 0.799 | 0.729 | 0.569 | 0.413 | 0.337 | 0.31 | 0.151 | 0.532 | 0.492 | – | 0.453 | 0.507 | 0.539 | 0.548 | 0.577 | 0.157 | – |
| LXF-289 | 0.917 | 0.757 | 0.468 | 0.313 | 0.903 | 0.157 | 0.298 | 0.0894 | 0.99 | 0.876 | 0.9 | 0.942 | 0.192 | 0.202 | 0.152 | 0.154 | 0.0835 | 0.806 |
| NCI-H1793 | 0.683 | 0.674 | 0.57 | 0.406 | 0.352 | – | 0.143 | 0.145 | 0.957 | 0.824 | 1.13 | 1.14 | 0.378 | 0.413 | 0.368 | 0.313 | 0.186 | – |
| NCI-H1734 | 0.859 | 0.881 | 0.756 | 0.46 | 0.539 | 0.242 | 0.194 | 0.0915 | 0.477 | 0.421 | 0.44 | 0.452 | 0.41 | 0.521 | 0.407 | 0.291 | 0.0987 | 0.439 |
| LU99A | 0.752 | 0.851 | 0.693 | 0.488 | 0.327 | 0.135 | 0.205 | 0.0961 | 0.181 | 0.159 | 0.193 | 0.179 | 0.575 | 0.655 | 0.567 | 0.4 | 0.153 | 0.214 |
| RERF-LC-KJ | 0.901 | 0.938 | 0.831 | 0.823 | 1.07 | 0.804 | 0.436 | 0.177 | 0.458 | 0.486 | 0.447 | 0.519 | 0.908 | 1.01 | 0.777 | 0.571 | 0.24 | 0.506 |
| NCI-H2087 | 1.27 | 1.05 | 0.628 | 0.519 | 1.3 | – | 0.681 | 0.0787 | 0.748 | 0.666 | 0.658 | 0.685 | 0.917 | 0.835 | 0.532 | 0.483 | 0.207 | 0.741 |
| NCI-H2170 | 1 | 0.872 | 0.537 | 0.44 | 1.05 | – | 0.43 | 0.15 | 0.282 | 0.252 | 0.267 | 0.278 | 0.566 | 0.53 | 0.393 | 0.28 | 0.0989 | 0.371 |
| HCC-78 | 0.548 | 0.527 | 0.459 | 0.325 | 0.674 | 0.463 | 0.438 | 0.326 | 0.923 | 0.878 | 0.924 | 0.953 | 0.34 | 0.427 | 0.322 | 0.254 | 0.375 | 0.751 |
| NCI-H1395 | 0.827 | 1.14 | 1.05 | 0.987 | 0.38 | 0.305 | 0.34 | 0.302 | 0.931 | 1.02 | 0.855 | 1.12 | 0.39 | 0.45 | 0.367 | 0.442 | 0.303 | 0.828 |
| H3255 | 0.861 | 1.08 | 0.872 | 0.656 | 0.658 | 0.474 | 0.324 | 0.126 | 0.592 | 0.573 | 0.567 | 0.568 | 0.304 | 0.5 | 0.328 | 0.359 | 0.204 | 0.549 |
| HCC-15 | 1.13 | 0.961 | 0.583 | 0.351 | 1.28 | – | 1.22 | 0.302 | 0.213 | 0.223 | 0.22 | 0.235 | 0.701 | 0.713 | 0.417 | 0.275 | 0.736 | 0.209 |
| NCI-H838 | 1 | 1.06 | 0.523 | 0.317 | 0.776 | 0.644 | 0.643 | 0.675 | 0.248 | 0.255 | 0.24 | 0.258 | 0.293 | 0.291 | 0.243 | 0.27 | 0.693 | 0.233 |
| NCI-H2342 | 0.961 | 1 | 0.885 | 0.786 | 0.642 | 0.412 | 0.373 | 0.328 | 0.742 | 0.714 | 0.746 | 0.781 | 0.305 | 0.343 | 0.301 | 0.293 | 0.335 | 0.739 |
| ChaGo-K-1 | 0.975 | 0.874 | 0.724 | 0.557 | 0.912 | – | 0.615 | 0.135 | 0.269 | 0.247 | 0.262 | 0.275 | 0.558 | 0.595 | 0.386 | 0.39 | 0.148 | 0.302 |
| EMC-BAC-2 | 1.1 | 1.01 | 1.05 | 0.963 | 0.352 | 0.215 | 0.203 | 0.192 | 0.429 | 0.441 | 0.451 | 0.466 | 0.343 | 0.332 | 0.368 | 0.35 | 0.262 | 0.408 |
| LCLC-103H | 0.845 | 0.717 | 0.454 | 0.267 | 0.827 | 0.41 | 0.334 | 0.194 | 0.458 | 0.45 | 0.44 | 0.491 | 0.493 | 0.417 | 0.326 | 0.251 | 0.231 | 0.505 |
| LK-2 | 1.6 | 1.02 | 1.13 | 0.568 | 0.571 | 0.448 | 0.394 | 0.0592 | 0.315 | 0.29 | 0.221 | 0.293 | 0.42 | 0.29 | 0.256 | 0.237 | 0.0558 | 0.228 |
| NCI-H460 | 1.02 | 0.73 | 0.156 | 0.0731 | 0.656 | 0.532 | 0.741 | 0.0251 | 0.0577 | 0.0612 | 0.0599 | 0.0635 | 0.584 | 0.488 | 0.159 | 0.0618 | 0.0465 | 0.0559 |
